Assay results reported in PubChem BioAssay (NCI).
Several values for one entry are separate records, joined by “and”; a condition that tells them apart may be missing. Equal values may be shown once.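 Here, GI50 denotes the concentration required for 50% inhibition of growth. At the TGI there is no net growth.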

Key:
Assay in all cases: growth of human tumour cells (NCI), 384-well format
NCI-H23 lung = tested on: NCI-H23 lung
SNB-19 CNS = tested on: SNB-19 CNS
A549 NSCLC = tested on: A549 NSCLC
HS 578T breast = tested on: HS 578T breast
KM12 colon = tested on: KM12 colon
NCI-H460 NSCLC = tested on: NCI-H460 NSCLC
NCI/ADR-RES ovarian = tested on: NCI/ADR-RES ovarian
EKVX NSCLC = tested on: EKVX NSCLC
OVCAR-3 ovarian = tested on: OVCAR-3 ovarian
SK-OV-3 ovarian = tested on: SK-OV-3 ovarian
SW-620 colon = tested on: SW-620 colon
MOLT-4 leukemia = tested on: MOLT-4 leukemia
M14 melanoma = tested on: M14 melanoma
COLO 205 colon = tested on: COLO 205 colon
T-47D breast = tested on: T-47D breast
PC-3 prostate = tested on: PC-3 prostate
SK-MEL-5 melanoma = tested on: SK-MEL-5 melanoma
HCT-116 colon = tested on: HCT-116 colon
HCC-2998 colon = tested on: HCC-2998 colon
OVCAR-8 ovarian = tested on: OVCAR-8 ovarian
HT29 colon = tested on: HT29 colon
BT-549 breast = tested on: BT-549 breast
UACC-62 melanoma = tested on: UACC-62 melanoma
ACHN renal = tested on: ACHN renal
MDA-MB-231 breast = tested on: MDA-MB-231 breast
OVCAR-4 ovarian = tested on: OVCAR-4 ovarian
NCI-H322M lung = tested on: NCI-H322M lung
SF-539 CNS = tested on: SF-539 CNS
RXF 393 renal = tested on: RXF 393 renal
K-562 leukemia = tested on: K-562 leukemia
NCI-H226 lung = tested on: NCI-H226 lung
HL-60(TB) leukemia = tested on: HL-60(TB) leukemia
LOX IMVI melanoma = tested on: LOX IMVI melanoma
U251 glioblastoma = tested on: U251 glioblastoma
MALME-3M melanoma = tested on: MALME-3M melanoma
CCRF-CEM leukemia = tested on: CCRF-CEM leukemia
MCF7 breast = tested on: MCF7 breast
SF-268 CNS = tested on: SF-268 CNS
IGROV1 ovarian = tested on: IGROV1 ovarian
SK-MEL-28 melanoma = tested on: SK-MEL-28 melanoma
MDA-MB-468 breast = tested on: MDA-MB-468 breast
RPMI-8226 leukemia = tested on: RPMI-8226 leukemia
786-0 renal = tested on: 786-0 renal
SNB-75 CNS = tested on: SNB-75 CNS
UACC-257 melanoma = tested on: UACC-257 melanoma
UO-31 renal = tested on: UO-31 renal
DU-145 prostate = tested on: DU-145 prostate
TK-10 renal = tested on: TK-10 renal
MDA-MB-435 melanoma = tested on: MDA-MB-435 melanoma
HCT-15 colon = tested on: HCT-15 colon
NCI-H522 lung = tested on: NCI-H522 lung
OVCAR-5 ovarian = tested on: OVCAR-5 ovarian
SF-295 CNS = tested on: SF-295 CNS
HOP-62 NSCLC = tested on: HOP-62 NSCLC
CAKI-1 renal = tested on: CAKI-1 renal
A498 renal = tested on: A498 renal
SN12C renal = tested on: SN12C renal
HOP-92 NSCLC = tested on: HOP-92 NSCLC

SMILES: CNC(=O)c1ccc(Nc2ncc(C(F)(F)F)c(NCc3nccnc3N(C)S(C)(=O)=O)n2)cc1
- GI50 (NCI-H23 lung): 1590 nM and 1740 nM
- TGI (NCI-H23 lung): 3170 nM and 3430 nM
- GI50 (SNB-19 CNS): 3050 nM and 3920 nM
- TGI (SNB-19 CNS): 13300 nM and 12400 nM
- GI50 (A549 NSCLC): 2350 nM and 2240 nM
- TGI (A549 NSCLC): 6470 nM and 6060 nM
- GI50 (HS 578T breast): 1300 nM and 449 nM
- TGI (HS 578T breast): 3100 nM and 2420 nM
- GI50 (KM12 colon): 250 nM and 239 nM
- TGI (KM12 colon): 2360 nM and 2860 nM
- GI50 (NCI-H460 NSCLC): 1470 nM and 1670 nM
- TGI (NCI-H460 NSCLC): 3130 nM and 3370 nM
- GI50 (NCI/ADR-RES ovarian): 13500 nM and 16000 nM
- TGI (NCI/ADR-RES ovarian): 40500 nM and 35500 nM
- GI50 (EKVX NSCLC): 1580 nM and 1890 nM
- TGI (EKVX NSCLC): 4560 nM and 5270 nM
- GI50 (OVCAR-3 ovarian): 1420 nM and 1980 nM
- TGI (OVCAR-3 ovarian): 3940 nM and 4840 nM
- GI50 (SK-OV-3 ovarian): 1310 nM and 1770 nM
- TGI (SK-OV-3 ovarian): 5300 nM and 9750 nM
- GI50 (SW-620 colon): 2020 nM and 2460 nM
- TGI (SW-620 colon): 4390 nM and 5130 nM
- GI50 (MOLT-4 leukemia): 1950 nM and 2160 nM
- TGI (MOLT-4 leukemia): 3580 nM and 3840 nM
- GI50 (M14 melanoma): 1290 nM and 1530 nM
- TGI (M14 melanoma): 3780 nM and 4150 nM
- GI50 (COLO 205 colon): 2030 nM and 2410 nM
- TGI (COLO 205 colon): 5340 nM and 5980 nM
- GI50 (T-47D breast): 2500 nM and 2670 nM
- TGI (T-47D breast): 6900 nM and 7180 nM
- GI50 (PC-3 prostate): 2110 nM and 3350 nM
- TGI (PC-3 prostate): 6150 nM and 10700 nM
- GI50 (SK-MEL-5 melanoma): 1340 nM and 1250 nM
- TGI (SK-MEL-5 melanoma): 2690 nM and 2640 nM
- GI50 (HCT-116 colon): 1750 nM and 1940 nM
- TGI (HCT-116 colon): 6220 nM and 4860 nM
- GI50 (HCC-2998 colon): 1500 nM and 1740 nM
- TGI (HCC-2998 colon): 4340 nM and 4680 nM
- GI50 (OVCAR-8 ovarian): 2730 nM and 3010 nM
- TGI (OVCAR-8 ovarian): 7710 nM and 8760 nM
- GI50 (HT29 colon): 2110 nM and 2250 nM
- TGI (HT29 colon): 5190 nM and 5710 nM
- GI50 (BT-549 breast): 1580 nM and 1990 nM
- TGI (BT-549 breast): 3400 nM and 4080 nM
- GI50 (UACC-62 melanoma): 1190 nM and 1400 nM
- TGI (UACC-62 melanoma): 2490 nM and 2810 nM
- GI50 (ACHN renal): 1910 nM and 2090 nM
- TGI (ACHN renal): 9330 nM and 9550 nM
- GI50 (MDA-MB-231 breast): 2380 nM and 3040 nM
- TGI (MDA-MB-231 breast): 11700 nM and 14600 nM
- GI50 (OVCAR-4 ovarian): 2310 nM and 3190 nM
- TGI (OVCAR-4 ovarian): 10200 nM and 14100 nM
- GI50 (NCI-H322M lung): 2040 nM and 2200 nM
- TGI (NCI-H322M lung): 5320 nM and 6000 nM
- GI50 (SF-539 CNS): 1550 nM and 1950 nM
- TGI (SF-539 CNS): 3290 nM and 3850 nM
- GI50 (RXF 393 renal): 1150 nM and 1170 nM
- TGI (RXF 393 renal): 2710 nM and 2730 nM
- GI50 (K-562 leukemia): 3450 nM and 3440 nM
- TGI (K-562 leukemia): 16800 nM
- GI50 (NCI-H226 lung): 2050 nM
- TGI (NCI-H226 lung): 11900 nM and 7960 nM
- GI50 (HL-60(TB) leukemia): 1610 nM and 2020 nM
- TGI (HL-60(TB) leukemia): 2970 nM and 3470 nM
- GI50 (LOX IMVI melanoma): 1530 nM and 1650 nM
- TGI (LOX IMVI melanoma): 3340 nM and 3520 nM
- GI50 (U251 glioblastoma): 2170 nM and 2960 nM
- TGI (U251 glioblastoma): 7560 nM and 10200 nM
- GI50 (MALME-3M melanoma): 2120 nM and 2650 nM
- TGI (MALME-3M melanoma): 4880 nM and 6180 nM
- GI50 (CCRF-CEM leukemia): 1710 nM and 2100 nM
- TGI (CCRF-CEM leukemia): 3280 nM and 3730 nM
- GI50 (MCF7 breast): 2210 nM and 1900 nM
- TGI (MCF7 breast): 7680 nM and 5850 nM
- GI50 (SF-268 CNS): 1030 nM and 681 nM
- TGI (SF-268 CNS): 2350 nM and 2260 nM
- GI50 (IGROV1 ovarian): 558 nM and 673 nM
- TGI (IGROV1 ovarian): 5910 nM and 8380 nM
- GI50 (SK-MEL-28 melanoma): 1780 nM and 2340 nM
- TGI (SK-MEL-28 melanoma): 3650 nM and 4720 nM
- GI50 (MDA-MB-468 breast): 1350 nM and 1790 nM
- TGI (MDA-MB-468 breast): 2950 nM and 3710 nM
- GI50 (RPMI-8226 leukemia): 1810 nM and 2260 nM
- TGI (RPMI-8226 leukemia): 3210 nM and 3750 nM
- GI50 ([…]-0 renal): 2400 nM and 2390 nM
- TGI (786-0 renal): 10800 nM and 8970 nM
- GI50 (SNB-75 CNS): 1280 nM and 1780 nM
- TGI (SNB-75 CNS): 3690 nM and 4750 nM
- GI50 (UACC-257 melanoma): 2060 nM and 2930 nM
- TGI (UACC-257 melanoma): 5320 nM and 8360 nM
- GI50 (UO-31 renal): 1820 nM and 1980 nM
- TGI (UO-31 renal): 4840 nM and 4750 nM
- GI50 (DU-145 prostate): 1710 nM and 2200 nM
- TGI (DU-145 prostate): 10700 nM and 11100 nM
- GI50 (TK-10 renal): 1770 nM and 2240 nM
- TGI (TK-10 renal): 5220 nM and 6820 nM
- GI50 (MDA-MB-435 melanoma): 2880 nM and 4550 nM
- TGI (MDA-MB-435 melanoma): 11800 nM and 14400 nM
- GI50 (HCT-15 colon): 1840 nM and 2790 nM
- TGI (HCT-15 colon): 5700 nM and 8920 nM
- GI50 (NCI-H522 lung): 1940 nM and 2470 nM
- TGI (NCI-H522 lung): 3630 nM and 4420 nM
- GI50 (OVCAR-5 ovarian): 2140 nM and 2410 nM
- TGI (OVCAR-5 ovarian): 6770 nM and 7250 nM
- GI50 (SF-295 CNS): 2720 nM and 2750 nM
- TGI (SF-295 CNS): 9230 nM and 8160 nM
- GI50 (HOP-62 NSCLC): 2040 nM and 2110 nM
- TGI (HOP-62 NSCLC): 6310 nM and 7250 nM
- GI50 (CAKI-1 renal): 1300 nM and 1480 nM
- TGI (CAKI-1 renal): 4510 nM and 4900 nM
- GI50 (A498 renal): 1080 nM and 1350 nM
- TGI (A498 renal): 4630 nM and 5830 nM
- GI50 (SN12C renal): 1940 nM and 2360 nM
- TGI (SN12C renal): 4120 nM and 4970 nM
- GI50 (HOP-92 NSCLC): 2210 nM and 2540 nM
- TGI (HOP-92 NSCLC): 6440 nM and 6500 nM
